These results are taken from US6806266B1 (priority 1999, dated 2004).

For series [1], the system named is human AGP (hα1AGP). The format is binding. The settings on record: equimolar solution (20 μmol/L) of test compound and human AGP, PBS pH=7.4, 37° C., two hours after mixing with DCC; HPLC peak area ratio.
Procedure: A solution of the test compound in DMSO was added to an isotonic phosphate buffer (PBS, pH=7.4) containing human AGP, to prepare an equimolar solution (20 μmol/L) of the test compound and human AGP. The solution was pre-incubated at 37° C. for 15 minutes and then mixed with an equal volume of 4 mg/mL of DCC in PBS, and incubation was further continued. After two hours from mixing, a part of the solution was sampled and centrifuged (4° C., 20000×g, 2 minutes) to precipitate the charcoal, and the supernatant was subjected to HPLC analysis. Separately, an equimolar solution (20 μmol/L) of the test compound and human AGP was mixed with an equal volume of PBS (pH=7.4), and then the mixed solution was subjected as a DCC-untreated sample to HPLC analysis. The ratio of the peak area of the DCC-treated sample to the average peak area of the DCC-untreated sample (the solution mixed with PBS) was calculated as the degree of binding (%).
For series [2], the system named is human epidermal cancer cell line A431. Format: cell-based. The settings on record: A431 cells. The protocol:
After the removal of the culture supernatant, the cells were washed with PBS(−), detached in an aqueous solution of 0.25% of Trypsin (GIBCO BRL) and 0.02% of ethylenediaminetetraacetic acid (Wako Pure Chemical Industries, Ltd.), then fixed at a density of 10^6 cells/mL with a 70% aqueous solution of ethanol and stored in a cold room at 4° C. Ethanol was removed by centrifugation from the fixed cells, and then the fixed cells were washed with PBS(−). The cells were treated at 37° C. for 30 minutes with a 0.25 mg/mL PBS(−)solution of ribonuclease A type 1-A (Sigma) containing 0.1% of Nonidet P-40 (Nacalai Tesque, Inc.), and then a solution of propidiumiodide (Sigma) in 0.1% NP-40/PBS(−) was added into the cells at a final concentration of 50 μg/mL, and the cells were stained in ice for at least 20 minutes.
A DNA histogram was taken by EPICS ELITE Flow Cytometer, and the cell cycle distribution was analyzed by use of MultiCycle Program.
In the method shown in Test Example 3, the G2 stage and the M stage of the cell cycle can not be distinguished from each other, and thus the distrubution of the G2 stage combined with that of the M stage (G2 stage+M stage) is expressed in percentage.

Series [3] concerns human lung cancer cell line A-549. Put plainly: Test for inhibitory activity on cell growth in human lung cancer cell line A-549. The settings on record: A549, 72 h, read-out: Inhibitory activity on cell growth (IC50/μmol/L).
Setting [4] is: Cisplatin 20 μmol/L + test compound 50 nmol/L, 8 hours.

Like-named read-outs stand apart in the source and are kept apart here.

Turning to `CN[C@@H]1C[C@H]2O[C@@](C)([C@@H]1OC)n1c3ccccc3c3c4c(c5c6ccccc6n2c5c31)C(=O)N[C@@H]4O` [UCN-01], the “Degree of binding to hα1AGP (%)” value in series [1] stood at 76.8%. In addition, in series [2] (setting [4]), the “Cell cycle distribution (%) G1 stage” value is 31.9%, the “Cell cycle distribution (%) G2 stage + M stage” value was determined as 27.6% and the “Cell cycle distribution (%) S stage” value was 40.5%. In addition, the “abrogation of accumulation action at the G2 stage and S stage” value in series [2] (in combination with Cisplatin (20 μmol/L)) was “a decrease in the S stage and an increase in the G1 stage”. Also, the IC50 in series [3] was 0.018 µmol/L.
On to `N.N.[Cl][Pt][Cl]` [Cisplatin], for which, in series [2] (Cisplatin 20 μmol/L alone), the “Cell cycle distribution (%) G1 stage” value was found to be 5.5%, the “Cell cycle distribution (%) G2 stage + M stage” value is reported as 17.5% and the “Cell cycle distribution (%) S stage” value worked out at 77.0%. Also, the “accumulation action at the G2 stage or S stage (cell cycle distribution versus untreated group)” value in series [2] (only Cisplatin (20 μmol/L)) is “An increase in the S stage, an increase in (G2 stage+M stage) and a decrease in the G1 stage”.
